Reference: US9624280B2 (JANSSEN BIOTECH, INC., priority 2013, dated 2017)
Entries after “also recorded” stand apart in the source; their conditions may differ. Read-outs that look alike come from different tables or passages of the source. No end group written: not given here.

Legend:
[1] = biological target: T1, human Nav1.6 (Homo sapiens, UniProt Q9UQD0); type: cell-based
T1 construct: expressed in transfected cells

[2] = tested on: C57Bl/6 mice; assay: CFA model of inflammatory pain, thermal hyperalgesia (Hargreaves test); type: in vivo; settings: for Thermal MPE %: CFA model, mice, mean±s.e.m. (n)
Procedure: (§1) Male C57Bl/6 mice (24-26 g), ordered from Charles River and housed individually, were used for this study.
This box consists of a chamber with a raised glass floor maintained at a constant temperature (27° C.). The thermal nociceptive stimulus originates from a projection bulb light beam below the glass surface. The light beam is aimed at the area between toris (center plantar). The “start” button will turn on the light and start the timer. Movements (such as a sudden withdrawal) of the stimulated paw will trigger the switch to turn off the light and stop the timer. […] If no movement occurs, the bulb will be turned off after 20 seconds (cutoff) to prevent tissue injury. The animals were allowed to habituate on the glass surface for 30-60 minutes before PWL measurement.
(§2) Percent maximum possible effect (MPE %)=(T1−T0)/(Tc−T0)×100%. T0: threshold on day0 (post-CFA, pre-pump); T1: threshold on day1 post pump implantation; Tc: cut-off of the test (20 s for the Hargreaves test and 2 g for the Von Frey test)
(§3) Animals were anesthetized with isoflurane (4% induction and 2% maintenance) and 20 μL of 100% Complete Freund's Adjuvant (CFA; Sigma-Aldrich; Saint Louis, Mo.) was injected into the center plantar area on one hind paw using a 27 gauge needle attached to a 50 μL Hamilton syringe. Carrageenan model: Animals were anesthetized with isoflurane (4% induction and 2% maintenance) and 25 μL of 2% A-carrageenan (Sigma-Aldrich; Saint Louis, Mo.) dissolved in normal saline was injected into the center plantar area on hind paws using an insulin syringe (BD; Franklin Lakes, N.J.).
(§4) Alzet micro-osmotic mini pumps (Durect Corporation Model 1003D and 2001D) were filled and primed per manufacturer's guide. Mice were anesthetized with isoflurane (5% induction; 2% maintenance). Their backs were shaved, wiped down with isopropyl alcohol and povidone iodine, and a small incision was made between the scapulae. Using a pair of forceps or hemostat, a small pocket was formed by spreading the subcutaneous connective tissues apart. The pump was inserted into the pocket with the flow moderator pointing away from the incision. The skin incision was then closed using 7 mm staples and the animals were allowed to recover in their home cages.
(§5) Data are represented as mean±s.e.m. Prism (Graphpad Software Inc., La Jolla, Calif.) was used for graphing and statistical analysis. For comparison of threshold values over time, a two-way ANOVA followed by Bonferroni's multiple comparison test was used with a significance level of p<0.05. Hotplate and MPE % data were analyzed by one-way ANOVA followed by Bonferroni's multiple comparison test.

[3] = tested on: C57Bl/6 mice; assay: CFA model, tactile allodynia (Von Frey test); type: in vivo
From the text: as §1
7 graded stimuli (von Frey filaments: 0.03, 0.07, 0.16, 0.4, 0.6, 1, 2 g; Stoelting, Wood Dale, Ill.) were used. Von Frey hairs were presented perpendicularly against the center plantar area (between toris) on a hindpaw. Sufficient force was applied to bend the filament slightly and held for 3 seconds. Per the Chaplan paper, a positive response can be either 1) a sharp withdrawal or 2) immediate flinching upon removal of the filament. See Chaplan et al for more details. Mice were acclimated to the wire mesh in the testing chamber for 30-60 minutes prior to testing.
as §2, §3
as §4, with “The pump was inserted into the pocket with the flow moderator pointing away from the incision. The skin incision was then closed using 7 mm staples and the animals were allowed to recover in their home cages.” left out
Data are represented as mean±s.e.m. […] Hotplate and MPE % data were analyzed by one-way ANOVA followed by Bonferroni's multiple comparison test.

[4] = tested on: C57Bl/6 mice; assay: Hotplate test; type: in vivo
Procedure: as §1
Animals were placed on a 10″×10″ metal plate surrounded by 4 Plexiglas walls (15 inches high). The plate was maintained at a temperature of either 50 or 55° C. The response latency (time when the animal first flinches or licks its hind paw, jumps, or vocalizes) was measured and the animal removed from the plate. Animals showing no response were removed from the plate after 40 s (50° C.) or 20 s (55° C.) to prevent any possible tissue damage. This trial was repeated 2-5 times every 15-60 minutes in a day.
as §4, §5

[5] = tested on: C57Bl/6 mice; settings: mouse, in vivo
[6] = biological target: human Nav1.5 (Homo sapiens, UniProt Q14524)
Sequence of human Nav1.5 (Q14524 whole entry): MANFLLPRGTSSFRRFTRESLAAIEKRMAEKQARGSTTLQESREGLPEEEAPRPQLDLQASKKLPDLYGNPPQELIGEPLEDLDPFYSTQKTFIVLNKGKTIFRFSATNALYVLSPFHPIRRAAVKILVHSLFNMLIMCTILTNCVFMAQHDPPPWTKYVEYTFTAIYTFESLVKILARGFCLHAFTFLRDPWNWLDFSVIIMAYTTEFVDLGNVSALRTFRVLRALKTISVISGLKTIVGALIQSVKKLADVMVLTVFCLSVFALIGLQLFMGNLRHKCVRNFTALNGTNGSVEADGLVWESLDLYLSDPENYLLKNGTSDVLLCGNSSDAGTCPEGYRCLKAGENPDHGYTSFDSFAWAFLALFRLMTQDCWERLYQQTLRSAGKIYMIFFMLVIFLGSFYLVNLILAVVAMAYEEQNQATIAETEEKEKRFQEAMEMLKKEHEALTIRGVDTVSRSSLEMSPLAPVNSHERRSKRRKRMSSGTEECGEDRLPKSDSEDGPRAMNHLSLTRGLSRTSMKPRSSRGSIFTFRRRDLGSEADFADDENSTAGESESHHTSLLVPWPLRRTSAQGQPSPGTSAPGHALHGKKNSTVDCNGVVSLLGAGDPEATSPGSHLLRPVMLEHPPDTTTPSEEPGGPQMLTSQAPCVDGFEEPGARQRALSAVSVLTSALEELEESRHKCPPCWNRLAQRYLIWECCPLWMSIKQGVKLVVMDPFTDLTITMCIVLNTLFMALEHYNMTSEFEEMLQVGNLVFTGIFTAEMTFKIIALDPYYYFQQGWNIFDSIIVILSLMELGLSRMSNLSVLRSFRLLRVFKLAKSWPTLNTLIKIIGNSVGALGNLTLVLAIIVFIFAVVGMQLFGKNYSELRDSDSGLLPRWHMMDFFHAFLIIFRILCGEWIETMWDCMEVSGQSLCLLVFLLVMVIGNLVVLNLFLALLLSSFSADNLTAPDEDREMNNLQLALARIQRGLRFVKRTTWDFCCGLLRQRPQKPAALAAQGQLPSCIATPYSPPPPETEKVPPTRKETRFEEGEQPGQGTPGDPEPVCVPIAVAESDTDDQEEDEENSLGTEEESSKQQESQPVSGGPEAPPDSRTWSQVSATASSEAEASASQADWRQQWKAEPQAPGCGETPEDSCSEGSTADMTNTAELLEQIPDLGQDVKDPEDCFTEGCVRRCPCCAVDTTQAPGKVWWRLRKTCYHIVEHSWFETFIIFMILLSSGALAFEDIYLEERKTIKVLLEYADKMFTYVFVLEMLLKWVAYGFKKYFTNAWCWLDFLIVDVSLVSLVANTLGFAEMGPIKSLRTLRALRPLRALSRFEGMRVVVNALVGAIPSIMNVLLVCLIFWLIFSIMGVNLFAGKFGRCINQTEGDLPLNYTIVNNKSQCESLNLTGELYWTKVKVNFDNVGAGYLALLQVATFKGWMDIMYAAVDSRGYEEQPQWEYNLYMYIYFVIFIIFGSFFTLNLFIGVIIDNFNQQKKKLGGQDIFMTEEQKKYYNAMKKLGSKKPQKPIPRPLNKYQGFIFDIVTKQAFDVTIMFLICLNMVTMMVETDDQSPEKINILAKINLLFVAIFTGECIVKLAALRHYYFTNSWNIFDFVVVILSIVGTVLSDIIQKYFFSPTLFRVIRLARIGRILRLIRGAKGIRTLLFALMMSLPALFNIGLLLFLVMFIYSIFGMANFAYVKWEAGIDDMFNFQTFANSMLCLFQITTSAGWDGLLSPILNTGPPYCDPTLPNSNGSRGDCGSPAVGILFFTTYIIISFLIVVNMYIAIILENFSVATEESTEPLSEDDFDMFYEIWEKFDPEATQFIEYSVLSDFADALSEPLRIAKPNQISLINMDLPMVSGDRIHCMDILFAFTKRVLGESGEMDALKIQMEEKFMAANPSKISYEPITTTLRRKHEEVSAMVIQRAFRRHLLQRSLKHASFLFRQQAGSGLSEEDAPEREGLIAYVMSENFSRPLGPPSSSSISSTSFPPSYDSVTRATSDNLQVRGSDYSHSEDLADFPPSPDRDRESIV

[7] = tested on: rodent; settings: Schmalhofer et al. 2008; cited from earlier work
[8] = tested on: isolated nerves; settings: unless the perineural barrier is compromised; Hackel et al. 2012; cited from earlier work

T1 sequence (Q9UQD0 whole entry): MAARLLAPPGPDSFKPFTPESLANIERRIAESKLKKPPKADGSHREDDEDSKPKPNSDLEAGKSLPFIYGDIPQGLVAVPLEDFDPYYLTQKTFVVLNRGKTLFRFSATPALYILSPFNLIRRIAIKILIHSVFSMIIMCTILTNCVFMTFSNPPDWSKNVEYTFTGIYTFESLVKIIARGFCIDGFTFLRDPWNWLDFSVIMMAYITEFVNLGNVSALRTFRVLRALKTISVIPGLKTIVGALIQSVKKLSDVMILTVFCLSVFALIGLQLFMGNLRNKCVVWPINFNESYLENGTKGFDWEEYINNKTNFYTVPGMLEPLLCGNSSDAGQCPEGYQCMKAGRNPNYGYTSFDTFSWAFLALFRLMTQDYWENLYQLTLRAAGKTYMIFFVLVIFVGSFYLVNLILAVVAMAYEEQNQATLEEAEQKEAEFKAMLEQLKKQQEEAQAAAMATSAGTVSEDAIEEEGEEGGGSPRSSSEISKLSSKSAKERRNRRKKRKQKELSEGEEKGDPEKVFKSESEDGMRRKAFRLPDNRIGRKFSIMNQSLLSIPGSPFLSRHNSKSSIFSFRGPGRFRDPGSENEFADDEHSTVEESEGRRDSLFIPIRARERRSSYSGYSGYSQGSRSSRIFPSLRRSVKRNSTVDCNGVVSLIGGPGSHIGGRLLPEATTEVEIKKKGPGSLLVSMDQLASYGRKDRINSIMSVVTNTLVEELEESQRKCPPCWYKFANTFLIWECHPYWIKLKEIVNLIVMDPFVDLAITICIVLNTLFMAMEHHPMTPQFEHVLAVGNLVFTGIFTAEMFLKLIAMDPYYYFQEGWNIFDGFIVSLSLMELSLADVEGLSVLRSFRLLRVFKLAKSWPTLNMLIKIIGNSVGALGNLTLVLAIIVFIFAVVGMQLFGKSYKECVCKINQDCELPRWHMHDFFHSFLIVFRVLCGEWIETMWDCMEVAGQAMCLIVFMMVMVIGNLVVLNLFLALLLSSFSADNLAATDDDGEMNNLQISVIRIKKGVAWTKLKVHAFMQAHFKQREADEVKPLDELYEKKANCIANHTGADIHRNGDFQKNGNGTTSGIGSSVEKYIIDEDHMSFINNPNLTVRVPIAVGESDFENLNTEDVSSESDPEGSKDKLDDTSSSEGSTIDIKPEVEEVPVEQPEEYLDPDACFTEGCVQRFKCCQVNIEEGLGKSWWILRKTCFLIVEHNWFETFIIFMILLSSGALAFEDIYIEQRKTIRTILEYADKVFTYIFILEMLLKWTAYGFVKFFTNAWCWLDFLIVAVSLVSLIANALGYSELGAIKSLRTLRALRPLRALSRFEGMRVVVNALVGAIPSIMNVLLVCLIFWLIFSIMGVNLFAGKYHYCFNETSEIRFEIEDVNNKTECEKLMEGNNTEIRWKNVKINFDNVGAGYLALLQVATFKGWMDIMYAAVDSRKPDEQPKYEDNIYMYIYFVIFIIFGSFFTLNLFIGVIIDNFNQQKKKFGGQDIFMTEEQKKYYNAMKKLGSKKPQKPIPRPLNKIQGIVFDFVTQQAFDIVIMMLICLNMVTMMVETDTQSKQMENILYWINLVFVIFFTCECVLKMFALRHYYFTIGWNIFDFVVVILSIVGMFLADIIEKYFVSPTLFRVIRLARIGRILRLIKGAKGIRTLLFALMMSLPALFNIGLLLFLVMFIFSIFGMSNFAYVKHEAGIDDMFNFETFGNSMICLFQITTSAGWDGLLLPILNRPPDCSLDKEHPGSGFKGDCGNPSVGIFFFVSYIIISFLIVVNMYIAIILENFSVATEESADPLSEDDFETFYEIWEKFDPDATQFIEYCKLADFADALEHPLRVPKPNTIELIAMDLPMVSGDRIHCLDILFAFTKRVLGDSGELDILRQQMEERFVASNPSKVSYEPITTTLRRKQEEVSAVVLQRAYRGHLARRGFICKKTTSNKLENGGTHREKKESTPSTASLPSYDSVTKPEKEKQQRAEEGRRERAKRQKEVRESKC

## GPQCQKWMQTCDAERKCCEGFVCRLWCKKKLW-OH (cysteine pairing not given here) [NV1D2775]
[1]
  selectivity for Nav1.7 compared to recombinant Protoxin-II: improved selectivity
[2]; 1824 μg/day, cut-off 20 s
  thermal latencies after peptide administration: close to the cut-off
[2]; 228 μg/day/mouse by subcutaneous osmotic mini-pump
  Thermal MPE %: 35 ± 8 (8) %
[2]; 1824 μg/day/mouse by subcutaneous osmotic mini-pump
  Thermal MPE %: 85 ± 6 %
[2]; mouse, in vivo
  efficacy in the CFA model: strong efficacy
  time at which anti-hyperalgesic effect was first seen, post-pump implantation: 4 h
  time at which effect reached the maximum, thermal test: 8 h
  time by which thermal latency returned to control level post pump implantation: ≤ 48 h
[3]; 1824 μg/day
  CFA-induced tactile allodynia: reversed
[3]; mouse, in vivo
  time at which effect reached the maximum, tactile test: 8 h
  time by which tactile threshold returned to control level post pump implantation: ≤ 48 h
[4]; 228 μg/day
  hotplate thermal latency compared to the PBS control: modest yet significant increase
[4]; 1824 μg/day
  hotplate latencies at 50 and 55° C.: near cut-off
[4]; mouse, in vivo, listed as NV1D2775-OH
  efficacy in the hotplate test: strong, dose-dependent efficacy; also recorded: significant analgesia
[5]
  analgesia, thermal withdrawal latency on day1 post-pump: significant analgesia
  protection from carrageenan-induced thermal hyperalgesia: fully protected

## GPSCQKWMQTCDAERKCCEGFVCRLWCKKKLW-OH (cysteine pairing not given here) [NV1D2773]
[6]; human, pH 7.4
  IC50: > 3000 nM

## GPYCQKWMWTCDSERKCCEGMVCRLWCKKKLW-COOH [NV1D12, reference compound]
[1]; read-out: IC50 for Nav1.6, QPatch electrophysiology assay
  IC50: ~62 nM
[6]
  IC50: > 1000 nM

## YCQKWMWTCDSERKCCEGMVCRLWCKKKLW-COOH [wild type Protoxin-II]
[7]
  efficacy in rodent models of acute and inflammatory pain: non-efficacious
[8]
  inhibition of action potential firing in isolated nerves: inability
